This note sets out measurements from US20100004316A1, “MULTIFUNCTIONAL CARRIERS FOR THE DELIVERY OF NUCLEIC ACIDS AND METHODS OF USE THEREOF” (UNIVERSITY OF UTAH RESEARCH FOUNDATION, priority 2006, published 2010).

Data set [1] is described as follows: Particle size of MFC/siRNA complexes by dynamic light scattering.
Description: Particle Size Analysis. Samples were prepared by mixing 5.0 μg of plasmid DNA or siRNA with appropriate amount of materials in dust-free water and analyzed using a Brookhaven Instruments BI-200SM system equipped with a 5 mW helium neon laser with a wavelength output of 633 nm. The effective diameter and population distribution were computed from the diffusion coefficient using functions supplied by the instrument. Measurements were made at 25° C. at an angle of 90° and each sample was analyzed in triplicate.
Formation and size measurement of MFC/siRNA nanoparticles. MFC/siRNA nanoparticulate complexes were prepared and characterized using the techniques described above. The complexation of the polymerizable MFCs with siRNA and formation of nanoparticles of the complexes were investigated by dynamic light scattering. EHCO was first used to study the complexation with siRNA and the impact of N/P ratios on the complexation and formation of nanoparticles. […] The particle size of siRNA complexes with other polymerizable surfactants was measured at the N/P ratios of 8 and 10 based on the observation with EHCO.
Data set [2] deals with U87-Luc cells. Briefly: Luciferase gene silencing with anti-luciferase siRNA in U87-Luc cells. Type of data set: cell-based. The method, then:
THCO-mediated delivery of siRNA targeting a luciferase reporter gene. U87-Luc cells were seeded 24 hours prior to transfection into a 96-well plate at a density of 5000 cells/well. At the time of siRNA transfection, the medium in each well was replaced with fresh serum-free medium. 20 nM anti-luciferase siRNA or non-specific siRNA was complexed with THCO or Transfast™ or DOTAP and incubated for 30 min before use. The transfection by Transfast or DOTAP was performed according to the manufacture's instruction. Complexes were incubated with the cells for 4 hours at 37° C. The medium was then replaced with 100 μL of fresh complete medium and cells were incubated for additional 44 hours. All the transfection tests were performed in triplicate wells. After the incubation, cells were washed with pre-warmed PBS and treated with 200 μL cell lysis buffer and then subjected to a freezing-thawing cycle. Cellular debris was removed by centrifugation at 14,000 g for 5 minutes. The luciferase activity in cell lysate (20 μL) was measured using a luciferase assay kit (100 μL luciferase assay buffer) on a luminometer for 10 seconds (Lumat 9605, EG&G Wallac). The gene silencing efficiency was normalized against the luciferase expression of untreated cells. The siRNA delivery efficiency was also similarly evaluated in 10% FBS medium.
G. In vitro delivery of nucleic acids by MFCs MFC-mediated in vitro gene silencing with siRNA. U87-luc cells with constitutive expression of firefly luciferase were maintained in minimal essential medium (ATCC) containing 10% FBS, G418 (300 μg/mL), streptomycin (100 μg/mL) and penicillin (100 units/mL). U87-Luc cells were seeded 24 hours prior to transfection into a 96-well plate at a density of 5000 cells/well. At the time of siRNA transfection, the medium in each well was replaced with fresh serum-free medium. Anti-luciferase siRNA was complexed with the MFC, TransFast or DOTAP and incubated for 30 min before use. Complexes were incubated with the cells for 4 hours at 37° C. The medium was then replaced with 100 μL of fresh complete medium and cells were incubated for an additional 44 hours. The cells were then washed with pre-warmed PBS, treated with 200 μL cell lysis buffer and subjected to a freezing-thawing cycle. Cellular debris was removed by centrifugation at 14,000 g for 5 minutes. The luciferase activity in cell lysate (20 μL) was measured using a luciferase assay kit (100 μL luciferase assay buffer) on a luminometer for 10 seconds (Lumat 9605, EG&G Wallac). The gene silencing efficiency was normalized against the luciferase expression of untreated cells.

Data set [3] concerns rat red blood cells. Briefly: Hemolysis assay at different pHs. Type of data set: cell-based. The conditions noted are these: for hemolytic activity: 8.3 μM; for hemolysis: pH 7.4, 6.5 and 5.4 (all cases). The method, then: Hemolysis assay. THCO (16.7 μM), DOTAP (16.7 μM) and Triton X-100 (1%, w/v) were dissolved in phosphate buffered saline (PBS) at a starting pH of 7.4, 6.5, or 5.4 as stock solutions. A rat was sacrificed and blood was obtained by cardiac puncture. Erythrocytes (RBC) were isolated by centrifugation at 1500 g for 10 min at 4° C. The cell pellet was resuspended into a 2% (w/v) RBC solution with prechilled PBS and then seeded (100 μL) into a 96-well plate. 100 μL of testing samples were added to RBC solutions and the plate was incubated for 1 h at 37° C. The absorbance of the supernatant from each sample was measured at 550 nm using a micro-plate reader.
Hemolysis assay. The assays were performed using the techniques described above. The pH sensitive amphiphilic cell membrane disruption of the MFCs was evaluated by hemolysis assay with rat red blood cells at different pHs. […] Generally, all MFCs had lower hemolytic activity at pH 7.4 than at pH 6.5 and 5.4.

For data set [4], the system named is U87-luc xenograft. Kind of data set: In vivo luciferase knockdown with anti-luc siRNA complexes, bioluminescence imaging. On the set-up: species or system mice. The following applies: 50 μg anti-luciferase siRNA i.p. The method, then: Animal tumor model. U87 cells with stably expression of luciferase were collected and resuspended with medium/matrigel mixture (v/v=l/l). 100 μL of cell suspension containing 2 million cells were injected subcutaneously in the right flanks of the mice.
Carriers. EHCO was selected for the study. DOTAP is a commercial available transfection agent that has been used to deliver siRNA in vivo and was used as a control carrier. siRNAs. Anti-Luciferase siRNA was used to knockdown luciferase expression in mice so as to noninvasively detect gene silencing efficiency by bioluminescence imaging. […] The sequence of antisense is 5′-[…]dTdT-3′ and that of sense is 3′-dTd[…]-5′. siRNA targeting HIF was provided Huntsman Cancer Institute, University of Utah. The sequence of antisense is 5′-[…]dTdT-3′ and that of sense is 3′-dTdT […]-5′.
Administration of Anti-Luc siRNA complexes and Luciferase mouse imaging. Bioluminescence imaging of mice were taken one day before the administration of the anti-luciferase complexes. […] Images were quantified using LivingImage software (Xenogen). […] The luminescence signal intensity on the day before the mice received the anti-luc complexes were set as 100% and the subsequent luciferase expression level in mice after siRNA treatments were normalized to the percentage relative to those at day 0.

Data set [5] concerns U87-Luc cells. Kind of data set: Cytotoxicity of MFC/siRNA complexes (MTT). Type of data set: cell-based. The following applies: siRNA complexes, 100 nM siRNA. The method, then:
Cytotoxicity of MFC/siRNA complexes. U87-luc cells were incubated with MFC/siRNA complexes of different carriers according to the protocol described above. MTT in PBS (5 mg/mL, 25 μL) was added to each well after incubation and cells were incubated for another 2 hours. After cell culture medium was removed, 200 μL DMSO was added to each well and cells were incubated at 37° C. for 5 min. The optical absorption was measured at 570 nm using a micro-plate reader (Model 550, Bio-Rad Lab. Hercules, Calif.). The relative cell viability was calculated with the equation ([Abs]sample-[Abs]blank)/([Abs]control-[Abs]blank)×100%.

The test system of data set [6] is U87 cells. Briefly: MTT cytotoxicity assay in U87 cells. The following applies: concentration of 250 μg/mL, 24 h. Type of data set: cell-based. The method, then:
In another study, U87 cells were seeded in a 96-well plate 24 h before the assay at a density of 10,000 cells/well. The cells were incubated with 200 μL of medium containing THCO at different concentrations and incubate for 24 h. Then 25 μL MTT solution in PBS was added and cells were incubated for another 2 hours. After removing media, 200 μL of DMSO was added to the wells and cells were incubated at 37° C. for 5 min. The optical densities were measured at 570 nm using a micro-plate reader (Model 550, Bio-Rad Lab. Hercules, Calif.). The relative cell viability was calculated as described above. […] The viability of U87 cells incubated with THCO was 79±8% at a concentration of 250 μg/mL as determined the MTT assay, slightly higher than that of DOTAP (72±4%) (FIG. 8).

On to `CCCCCCCCC=CCCCCCCCC(=O)NC(CS)C(=O)NC(Cc1cnc[nH]1)C(=O)NCCNC(=O)CCN(CCN)CCC(=O)NCCNC(=O)C(Cc1cnc[nH]1)NC(=O)C(CS)NC(=O)CCCCCCCC=CCCCCCCCC` (centres unmarked) [EHCO, (1-aminoethyl)imino-bis[N-(oleicyl-cysteinyl-histinyl-1-aminoethyl)propion-amide]], for which the “particle size of siRNA complexes (diameter)” value in data set [1] (N/P ratio of 0.5, incubated 30 minutes) is “approximately 200 nm”; in data set [1] (N/P ratio of 8, dust free water), “approximately 200 nm”. Further, the “particle size of siRNA complexes” value is “about 3 μm” in data set [1] (N/P ratio of 4), “approximately 240 nm” in data set [1] (N/P ratio of 6) and approximately 151 nm in data set [1] (N/P ratio of 10). In addition, the “luciferase silencing (transfection) efficiency” value in data set [2] (20 nM siRNA, MFCs at N/P ratio of 10, FIG. 21b) is 74.5±1.0%. In data set [2] (100 nM siRNA, MFCs at N/P ratio of 10, FIG. 21a), the “knockdown of luciferase expression” value was found to be 88.4±3.1%. The hemolytic activity entry in data set [3] (pH 6.5, PBS) was “negligible hemolysis”; in data set [3] (pH 7.4, PBS), “negligible hemolysis”. The “reduction of luciferase expression in the tumor” value in data set [4] (after two treatments) is “more than 50%”. Also, the cell viability – broadly, a per cent measure of how many cells are alive, often set against a control – in data set [5] was found to be 86.7±8.3%.
For Triton X-100 [reference compound], the hemolysis result in data set [3] is listed as “complete hemolysis”.
Take “N-(2,3-dioleoyloxy-1-propyl)trimethylammonium methyl sulfate [DOTAP, reference compound]”: the gene silencing efficiency in data set [2] (20 nM siRNA, serum free medium, THCO N/P=8, FIG. 12) was determined as 47.1±3.8%; in data set [2] (20 nM siRNA, serum-free medium, THCO at N/P ratios from 4 to 16) it was 47%. Moreover, in data set [3], the hemolysis entry is “Little hemolysis”. In data set [4] (two treatments), the “effect on luciferase expression in the tumor” value was “did not have significant effect after the second treatment”. Also, the “viability of U87 cells” value in data set [6] turned out to be 72±4%.
